The target of series [1] is T1, GST-labeled recombinant human FXR protein (Homo sapiens, UniProt Q96RI1).
T1 construct: purchased Invitroren (so in the source)
T1 sequence (Q96RI1 262-486 limits assumed): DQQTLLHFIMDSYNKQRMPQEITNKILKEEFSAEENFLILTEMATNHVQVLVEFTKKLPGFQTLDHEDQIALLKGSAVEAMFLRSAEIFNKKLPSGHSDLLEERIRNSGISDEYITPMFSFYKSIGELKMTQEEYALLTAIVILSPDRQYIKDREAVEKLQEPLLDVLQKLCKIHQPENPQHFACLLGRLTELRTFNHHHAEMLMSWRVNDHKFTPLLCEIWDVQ
T1 sequence (Q15788 676-700 partner limits assumed): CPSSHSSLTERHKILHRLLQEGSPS
Kind of series: Agonistic activity on FXR receptor (GST-FXR / SRC-1 bead assay, protein level). It counts as biochemical. Conditions: 0.4 nM FXR, 30 nM SRC-1, protein level. The method, then: Experimental procedures: FXR (GST-labeled recombinant human FXR protein, manufacturer: Invitroren, Item number: PV4835) and SRC-1 (steroid receptor co-activator-1) are thawed on ice. Three solutions of ABC are prepared by a buffer solution, solution A, 0.4 n M FXR and 30 nM SRC-1; solution B, 10 ug/ml Acceptor Beads; solution C, 10 ug/ml Donor Beads. Solution A is added to the plate at 15 uL per well. It is incubated at room temperature for 1 hour. Solution B is added to the plate at 7.5 uL per well. It is incubated at room temperature for 1 hour. Solution C is added to the plate at 7.5 uL per well. It is incubated at room temperature for 1 hour. It is read from the microplate reader Envision. The data are curve fitted by using Prism 5.0 to calculate the EC50.

For a further series, the target named is T2, FXR (Homo sapiens, UniProt Q96RI1).
T2 construct: expressed in transfected cells
T2 sequence (Q96RI1 1-486): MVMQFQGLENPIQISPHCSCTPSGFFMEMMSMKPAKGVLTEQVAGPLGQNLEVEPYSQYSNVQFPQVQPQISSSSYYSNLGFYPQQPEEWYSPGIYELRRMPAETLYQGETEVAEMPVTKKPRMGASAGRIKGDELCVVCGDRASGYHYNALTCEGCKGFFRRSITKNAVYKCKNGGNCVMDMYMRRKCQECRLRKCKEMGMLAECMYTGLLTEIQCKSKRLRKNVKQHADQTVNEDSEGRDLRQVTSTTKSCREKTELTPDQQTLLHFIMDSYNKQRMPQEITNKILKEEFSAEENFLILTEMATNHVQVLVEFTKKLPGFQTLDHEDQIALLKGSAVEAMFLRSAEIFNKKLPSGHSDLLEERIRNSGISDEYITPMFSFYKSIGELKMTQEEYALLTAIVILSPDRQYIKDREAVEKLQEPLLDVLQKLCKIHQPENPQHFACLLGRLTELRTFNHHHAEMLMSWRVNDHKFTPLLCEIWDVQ
The series is described as follows: Intracellular FXR-TR-FRET experiment (pBIND-FXR / pG5Luc dual luciferase). It counts as cell-based. Conditions: cellular level, 18 hours with compound. On the procedure: • 1. Cell culture: a, trypsinize dishes and seed cells are taken with appropriate density in 10 ml of complete […] at 37° C. b. Cells are incubated for 24 hours in 5% CO2 and humidified. • 2. Cell inoculation and transfection: FuGENE HD transfection reagent is used as a transfection reagent. • a. The transfection mixture is prepared according to the following procedure:
• b. The tube is tapped vigorously to mix the contents. The mixture is incubated at room temperature for 15 minutes. • c. Discs are trypsinized and cell density is determined. • d. The cytolymph is diluted to the desired volume at a density of 500,000 cells/ml (100 ul/well for 96-well plate). • e. The required volume of previously prepared transfection mixture is added to both cytolymph, and then 100 ul/well of cytolymph is dispensed onto the assay plate. • f. The assay plate is incubated under humidified conditions at 37° C., 5% CO2 for 24 hours. • 3. Compound preparation: • a. Compound stocks are prepared with a FXR working concentration of 10 mM and then diluted 3-fold in 100% DMSO. • b. 10 ul compound is added to 90 ul complete medium. • c. 5 ul compound solution is added to each well. • d. The plate is incubated at 37° C., 5% CO2 and humidified for 18 hours. • 4. Dual luciferase assay: the firefly and Renilla luciferase signals are analyzed by Dual Luciferase Reporter Assay System from Promega. Envision is used as a photometer. • 5. Result calculation: data values are normalized by dividing the firefly signal by the Renilla signal. “F/R” means “firefly/Renilla”. This normalization eliminates differences in different cell numbers and transfection efficiencies in each well. The % Activation value is calculated. The % Activation value is calculated by the following formula.
X is the “F/R” value for each concentration point. The minimum value is the average “F/R” value for the no compound control. The maximum value is the average “F/R” value of the reference compound control. • 6.
Background: Time-resolved FRET reads energy transfer from a long-lived donor to a nearby acceptor.

A further series can be described thus: in vitro. To be noted: human; for efflux ratio: Caco-2; for Papp A→B: Caco-2, Papp A-B; for Papp B→A: Caco-2, Papp B-A. The method, then:
(§1) The bi-directional transport of target compounds from apical side (AP) to basolateral side (BL) and from BL side to AP side is studied by using human colon adenocarcinoma cell line Caco-2 monolayer model. The transport parameters, apparent permeability coefficient (Papp) and efflux ratio are calculated by quantitative analysis with high performance liquid chromatography (HPLC).
On the technique in general: Caco-2 cells form a polarised layer with tight junctions and transporters.

Series [2] relates to human colon adenocarcinoma cell line Caco-2 monolayer model. Kind of series: in vitro. The method, then:
as §1

For series [3] the following is noted: literature; cited from earlier work.
Setting [4] is: Caco-2, Recovery rate A-B, Average.
The mark [5] stands for this setting: Caco-2, Recovery rate A-B, Sample-01.
Setting [6] is: Caco-2, Recovery rate A-B, Sample-02.
The mark [7] stands for this setting: Caco-2 cell line (21 days), Table 5.

Bounds are passed on as bounds.

The term EC50 denotes the midpoint of the concentration-response curve. What is called efflux ratio is a quotient of directional permeabilities that is used to spot active efflux. Broadly, the Papp A→B is the apparent permeability from the apical to the basolateral side of a cell layer. For orientation: Papp B→A means how fast a substance crosses the layer from the basolateral side. In the case of `O=C(O)c1cccc(C2CC(O)(c3ccc(OCc4c(-c5c(Cl)cccc5Cl)noc4C4CC4)cc3Cl)C2)c1` (centres unmarked) [Compound M3, reference compound], the EC50 is 1090 nM in series [1] and 1490 nM on FXR. In addition, in the series “in vitro”, the efflux ratio is more than 76.8. The Papp A→B in “in vitro” is less than 0.15 ×10⁻⁶ cm/s; in “in vitro” (Average), less than 0.15 ×10⁻⁶ cm/s; in “in vitro” (Sample-01), less than 0.16 ×10⁻⁶ cm/s; in the series “in vitro” (Sample-02), less than 0.14 ×10⁻⁶ cm/s. The basolateral-to-apical permeability (Papp B→A) in the series “in vitro” was 11.6 ×10⁻⁶ cm/s; in “in vitro” (Average), 11.6 ×10⁻⁶ cm/s; in “in vitro” (Sample-01), 13.3 ×10⁻⁶ cm/s; in “in vitro” (Sample-02), 9.96 ×10⁻⁶ cm/s. The recovery in “in vitro” (setting [4]) is less than 21.8%; in the series “in vitro” (setting [5]), less than 27.2%; in “in vitro” (setting [6]) it was less than 16.4%; in the series “in vitro” (Caco-2, Recovery rate B-A, Average) it was 36%; in “in vitro” (Caco-2, Recovery rate B-A, Sample-01), 36.3%; in the series “in vitro” (Caco-2, Recovery rate B-A, Sample-02) it was 35.6%. The “membrane permeation in Caco-2 (in words)” value in series [2] (Caco-2) is on record as “poor permeation”. Moreover, the “Papp A-B, Average” value in series [2] (human, Caco-2) was <0.15 10−6 cm/s.
As to `C[C@H]1O[C@@H](O[C@H]2[C@@H](O)C[C@H](O[C@H]3[C@@H](O)C[C@H](O[C@H]4CC[C@@]5(C)[C@H](CC[C@@H]6[C@@H]5C[C@@H](O)[C@]5(C)[C@@H](C7=CC(=O)OC7)CC[C@]65O)C4)O[C@@H]3C)O[C@@H]2C)C[C@H](O)[C@@H]1O` [Digoxin, digoxin, reference compound], the efflux ratio in the series “in vitro” was more than 263. In addition, the apparent permeability from apical to basolateral (Papp A→B) in “in vitro” (Average, Caco-2, A-B, Average (Table 3)) was less than 0.04 ×10⁻⁶ cm/s; in the series “in vitro” (setting [7]) it was less than 0.04 ×10⁻⁶ cm/s; in “in vitro” (Sample-01, Caco-2, A-B, Sample-01), less than 0.05 ×10⁻⁶ cm/s; in “in vitro” (Sample-02, Caco-2, A-B, Sample-02), less than 0.04 ×10⁻⁶ cm/s. Further, the Papp B→A amounted to 11.6 ×10⁻⁶ cm/s in the series “in vitro” (Average, Caco-2, B-A, Average (Table 3)); 11.6 ×10⁻⁶ cm/s in “in vitro” (setting [7]); 11.7 ×10⁻⁶ cm/s in “in vitro” (Sample-01, Caco-2, B-A, Sample-01); 11.5 ×10⁻⁶ cm/s in “in vitro” (Sample-02, Caco-2, B-A, Sample-02). The recovery in “in vitro” (Caco-2, Recovery rate A-B, Average, Caco-2, A-B) was less than 87%; in the series “in vitro” (Caco-2, Recovery rate A-B, Sample-01, Caco-2, A-B, Sample-01), less than 85.2%; in “in vitro” (Caco-2, Recovery rate A-B, Sample-02, Caco-2, A-B, Sample-02), less than 88.7%; in the series “in vitro” (Caco-2, Recovery rate B-A, Average, Caco-2, B-A), 94.6%; in the series “in vitro” (Caco-2, Recovery rate B-A, Sample-01, Caco-2, B-A, Sample-01), 93.7%; in the series “in vitro” (Caco-2, Recovery rate B-A, Sample-02, Caco-2, B-A, Sample-02), 95.4%. In addition, the “Papp A-B, Average” value in series [2] (Caco-2, A-B, Average (Table 3)) is <0.04 10−6 cm/s. Besides, the “Efflux rate = Papp B-A/Papp A-B” value in series [2] (Caco-2 cell line (21 days)) is more than 262.93.
As usually defined, the t½ is how long it takes for the measured level to halve. For the compound `CC(C)c1onc(-c2c(Cl)cccc2Cl)c1COc1ccc(/C=C/c2cccc(C(=O)O)c2)c(Cl)c1` [GW4064], in series [3], the oral availability was 10% and the t½ is 3.5 h.
On to `Cc1cc(C(=O)O)cc(C2CC(O)(c3cnc(OCc4c(-c5c(Cl)cccc5Cl)noc4C4CC4)cn3)C2)c1` (centres unmarked) [TM-08, 3-(3-(5-((5-cyclopropyl-3-(2,6-dichlorophenyl)isoxazol-4-yl)methoxy)pyrazine-2-yl)-3-hydroxycyclobutyl)-5-methyl benzoic acid], for which the figures for the EC50 (in series [1]; at FXR) were 240 nM and 1510 nM, respectively. The efflux ratio in the series “in vitro” was determined as 16.9. The Papp A→B in “in vitro” was found to be 0.58 ×10⁻⁶ cm/s; in “in vitro” (Average), 0.97 ×10⁻⁶ cm/s; in “in vitro” (Sample-01), 1.01 ×10⁻⁶ cm/s; in the series “in vitro” (Sample-02), 0.94 ×10⁻⁶ cm/s. The apparent permeability from basolateral to apical (Papp B→A) in the series “in vitro” amounted to 9.89 ×10⁻⁶ cm/s. Besides, the recovery in the series “in vitro” (setting [4]) was determined as 99%; in the series “in vitro” (setting [5]), 99.6%; in the series “in vitro” (setting [6]), 98.5%. In addition, the “membrane permeation in Caco-2 (in words)” value in series [2] (Caco-2) is recorded as “poor effect”.

The values are drawn from US12486259B2, “FXR agonist having pyrazine structure, and preparation method and use” (JIANGSU TASLY DIYI PHARMACEUTICAL CO., LTD., priority 2020, dated 2025).
